Results on 2 compounds are retold here after PMC8213057, “Targeting ALK2: An Open Science Approach to Developing Therapeutics for the Treatment of Diffuse Intrinsic Pontine Glioma” (Journal of Medicinal Chemistry, 2020).

For one assay, the target named is T1, DDR2 (Homo sapiens, UniProt Q16832).
T1 sequence (Q16832 22-855): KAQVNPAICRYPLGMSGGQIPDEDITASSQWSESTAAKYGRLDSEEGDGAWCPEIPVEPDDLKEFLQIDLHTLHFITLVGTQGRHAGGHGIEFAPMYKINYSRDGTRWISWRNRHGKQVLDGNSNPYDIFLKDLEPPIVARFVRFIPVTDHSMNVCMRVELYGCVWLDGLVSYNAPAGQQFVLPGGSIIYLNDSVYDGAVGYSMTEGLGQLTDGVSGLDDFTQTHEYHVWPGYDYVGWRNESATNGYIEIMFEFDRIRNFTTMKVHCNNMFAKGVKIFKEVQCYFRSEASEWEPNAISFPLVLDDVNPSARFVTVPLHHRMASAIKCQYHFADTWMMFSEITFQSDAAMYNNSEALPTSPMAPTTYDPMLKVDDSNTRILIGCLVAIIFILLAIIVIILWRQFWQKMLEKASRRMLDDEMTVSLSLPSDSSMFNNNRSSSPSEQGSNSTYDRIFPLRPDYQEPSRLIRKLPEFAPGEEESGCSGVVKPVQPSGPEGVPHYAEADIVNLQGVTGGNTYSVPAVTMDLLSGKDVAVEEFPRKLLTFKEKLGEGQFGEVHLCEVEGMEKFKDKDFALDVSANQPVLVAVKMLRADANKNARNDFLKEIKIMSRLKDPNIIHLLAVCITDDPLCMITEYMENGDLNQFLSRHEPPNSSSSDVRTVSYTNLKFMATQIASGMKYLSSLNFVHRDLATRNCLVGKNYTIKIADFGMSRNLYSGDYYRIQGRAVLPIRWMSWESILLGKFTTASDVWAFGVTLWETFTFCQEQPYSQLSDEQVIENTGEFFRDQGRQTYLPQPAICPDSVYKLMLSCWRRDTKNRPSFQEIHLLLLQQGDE
Put plainly: biochemical. The settings on record: read-out: % enzyme activity, 1 μM; Run 1, Run 2.

A further assay concerns the target CDK2/cyclin O (Homo sapiens, UniProt P24941). Conditions: 1 μM; Run 1, Run 2.
For another assay, the target named is T2, YSK4/MAP3K19 (Homo sapiens, UniProt Q56UN5).
T2 sequence (Q56UN5 1-1328): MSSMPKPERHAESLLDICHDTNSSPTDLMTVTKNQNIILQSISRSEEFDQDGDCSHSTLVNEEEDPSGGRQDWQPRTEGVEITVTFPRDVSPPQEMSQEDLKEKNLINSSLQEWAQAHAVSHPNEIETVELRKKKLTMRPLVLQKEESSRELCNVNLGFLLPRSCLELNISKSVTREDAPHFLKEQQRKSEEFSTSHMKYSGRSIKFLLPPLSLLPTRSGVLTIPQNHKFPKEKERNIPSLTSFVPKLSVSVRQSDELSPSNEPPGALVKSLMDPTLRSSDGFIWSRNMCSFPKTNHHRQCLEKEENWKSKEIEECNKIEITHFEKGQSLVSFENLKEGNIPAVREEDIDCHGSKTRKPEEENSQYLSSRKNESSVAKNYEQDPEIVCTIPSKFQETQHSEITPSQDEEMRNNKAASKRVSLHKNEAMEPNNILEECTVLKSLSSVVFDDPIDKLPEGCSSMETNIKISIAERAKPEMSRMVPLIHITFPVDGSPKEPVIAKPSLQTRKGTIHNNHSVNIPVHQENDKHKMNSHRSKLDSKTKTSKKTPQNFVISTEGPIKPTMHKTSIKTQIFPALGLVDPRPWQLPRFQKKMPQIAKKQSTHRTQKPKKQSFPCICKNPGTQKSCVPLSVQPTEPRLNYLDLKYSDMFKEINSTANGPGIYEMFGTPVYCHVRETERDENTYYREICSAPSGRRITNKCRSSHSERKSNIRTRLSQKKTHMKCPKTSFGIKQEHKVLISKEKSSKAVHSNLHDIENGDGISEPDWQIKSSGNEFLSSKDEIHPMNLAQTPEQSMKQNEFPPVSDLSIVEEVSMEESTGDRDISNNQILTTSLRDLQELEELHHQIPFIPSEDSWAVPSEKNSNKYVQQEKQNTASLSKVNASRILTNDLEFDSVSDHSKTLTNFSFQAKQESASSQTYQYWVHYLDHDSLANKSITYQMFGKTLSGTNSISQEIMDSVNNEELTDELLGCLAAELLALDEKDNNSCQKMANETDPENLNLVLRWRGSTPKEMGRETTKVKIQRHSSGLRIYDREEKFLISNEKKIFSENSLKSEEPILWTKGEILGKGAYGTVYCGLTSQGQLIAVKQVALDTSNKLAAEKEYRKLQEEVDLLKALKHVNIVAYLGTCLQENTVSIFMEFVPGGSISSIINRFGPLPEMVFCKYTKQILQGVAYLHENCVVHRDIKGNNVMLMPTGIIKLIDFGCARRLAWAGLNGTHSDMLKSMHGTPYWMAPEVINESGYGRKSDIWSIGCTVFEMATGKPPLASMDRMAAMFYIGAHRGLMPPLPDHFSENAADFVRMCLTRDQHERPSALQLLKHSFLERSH
In words: biochemical. The settings on record: read-out: % enzyme activity, 1 μM; Run 1, Run 2.

The target in another assay is IGF1R (Homo sapiens, UniProt P08069). The settings on record: 1 μM; Run 1, Run 2.
IGF1R, sequence (P08069 31-1367): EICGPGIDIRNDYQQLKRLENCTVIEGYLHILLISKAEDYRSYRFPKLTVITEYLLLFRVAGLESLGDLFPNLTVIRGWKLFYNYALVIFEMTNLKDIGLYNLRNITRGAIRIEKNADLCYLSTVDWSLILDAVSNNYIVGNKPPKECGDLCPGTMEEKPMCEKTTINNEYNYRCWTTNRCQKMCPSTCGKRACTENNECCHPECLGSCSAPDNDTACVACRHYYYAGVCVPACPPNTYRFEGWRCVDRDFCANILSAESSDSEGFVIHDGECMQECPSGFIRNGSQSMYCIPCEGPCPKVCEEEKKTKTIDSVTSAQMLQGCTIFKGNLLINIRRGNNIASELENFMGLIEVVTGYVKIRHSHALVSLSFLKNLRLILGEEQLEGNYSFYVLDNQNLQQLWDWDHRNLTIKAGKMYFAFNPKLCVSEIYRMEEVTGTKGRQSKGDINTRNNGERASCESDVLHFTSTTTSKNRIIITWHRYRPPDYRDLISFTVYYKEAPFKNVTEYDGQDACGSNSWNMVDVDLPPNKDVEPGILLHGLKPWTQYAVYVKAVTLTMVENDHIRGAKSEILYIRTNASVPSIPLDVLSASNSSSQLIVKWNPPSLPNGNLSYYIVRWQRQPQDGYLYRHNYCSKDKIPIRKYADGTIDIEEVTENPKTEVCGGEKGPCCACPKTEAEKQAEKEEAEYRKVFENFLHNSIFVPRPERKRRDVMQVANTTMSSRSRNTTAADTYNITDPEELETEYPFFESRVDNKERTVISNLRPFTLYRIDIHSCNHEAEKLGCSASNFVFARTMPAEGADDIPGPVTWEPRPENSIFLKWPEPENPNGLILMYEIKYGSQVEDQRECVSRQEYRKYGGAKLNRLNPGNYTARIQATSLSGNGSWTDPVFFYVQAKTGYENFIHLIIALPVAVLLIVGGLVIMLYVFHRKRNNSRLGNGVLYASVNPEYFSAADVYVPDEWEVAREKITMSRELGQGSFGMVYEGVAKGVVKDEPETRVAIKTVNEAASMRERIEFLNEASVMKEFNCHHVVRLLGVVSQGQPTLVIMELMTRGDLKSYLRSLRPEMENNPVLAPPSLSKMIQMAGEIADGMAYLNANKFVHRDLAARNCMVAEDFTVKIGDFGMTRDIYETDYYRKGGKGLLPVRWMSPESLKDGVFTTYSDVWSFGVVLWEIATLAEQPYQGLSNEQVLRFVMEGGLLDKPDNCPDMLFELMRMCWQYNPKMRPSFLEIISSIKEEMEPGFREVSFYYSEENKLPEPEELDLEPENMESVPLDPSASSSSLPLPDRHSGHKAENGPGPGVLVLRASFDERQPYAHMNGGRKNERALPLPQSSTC
The next assay concerns the target YES/YES1 (Homo sapiens, UniProt P07947). Put plainly: biochemical. The settings on record: read-out: % enzyme activity, 1 μM; Run 1, Run 2.
In another assay the target is HIPK1 (Homo sapiens, UniProt Q86Z02). Put plainly: biochemical. The settings on record: read-out: % enzyme activity, 1 μM; Run 1, Run 2.
HIPK1, sequence (Q86Z02 whole entry): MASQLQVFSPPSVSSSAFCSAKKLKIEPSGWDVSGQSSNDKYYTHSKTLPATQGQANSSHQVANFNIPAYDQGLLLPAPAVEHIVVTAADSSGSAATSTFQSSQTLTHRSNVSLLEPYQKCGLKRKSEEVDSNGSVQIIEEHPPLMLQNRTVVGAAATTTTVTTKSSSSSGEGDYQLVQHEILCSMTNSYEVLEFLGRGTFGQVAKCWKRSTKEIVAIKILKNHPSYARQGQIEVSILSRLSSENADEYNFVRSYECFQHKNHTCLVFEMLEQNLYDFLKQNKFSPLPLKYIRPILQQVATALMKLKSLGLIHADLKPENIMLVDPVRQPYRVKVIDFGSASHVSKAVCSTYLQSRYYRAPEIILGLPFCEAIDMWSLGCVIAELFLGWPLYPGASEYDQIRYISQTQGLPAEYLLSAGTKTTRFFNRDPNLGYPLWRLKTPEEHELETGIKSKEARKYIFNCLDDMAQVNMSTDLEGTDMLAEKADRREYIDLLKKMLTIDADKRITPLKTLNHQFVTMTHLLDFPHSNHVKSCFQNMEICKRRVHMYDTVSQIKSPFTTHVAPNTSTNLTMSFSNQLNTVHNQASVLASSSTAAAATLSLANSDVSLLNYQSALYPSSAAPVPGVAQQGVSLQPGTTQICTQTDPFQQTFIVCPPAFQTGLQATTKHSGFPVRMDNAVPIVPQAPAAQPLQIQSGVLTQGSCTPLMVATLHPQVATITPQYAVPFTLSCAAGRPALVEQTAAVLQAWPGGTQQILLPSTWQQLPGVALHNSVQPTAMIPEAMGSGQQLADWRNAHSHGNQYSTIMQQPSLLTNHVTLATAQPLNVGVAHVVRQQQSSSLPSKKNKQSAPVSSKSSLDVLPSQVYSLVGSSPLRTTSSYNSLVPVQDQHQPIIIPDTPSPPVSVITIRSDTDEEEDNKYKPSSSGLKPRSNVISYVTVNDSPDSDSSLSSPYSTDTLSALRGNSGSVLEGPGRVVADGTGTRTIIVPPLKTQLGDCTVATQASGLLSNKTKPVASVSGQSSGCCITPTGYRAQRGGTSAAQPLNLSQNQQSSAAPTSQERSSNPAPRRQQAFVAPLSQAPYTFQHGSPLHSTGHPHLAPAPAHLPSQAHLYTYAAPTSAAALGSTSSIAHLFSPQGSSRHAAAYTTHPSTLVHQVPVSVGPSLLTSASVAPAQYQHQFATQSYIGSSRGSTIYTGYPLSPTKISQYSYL
The target of another assay is PAK5 (Homo sapiens, UniProt Q9P286). In words: biochemical. Conditions: read-out: % enzyme activity, 1 μM; Run 1, Run 2.
PAK5, sequence (Q9P286 whole entry): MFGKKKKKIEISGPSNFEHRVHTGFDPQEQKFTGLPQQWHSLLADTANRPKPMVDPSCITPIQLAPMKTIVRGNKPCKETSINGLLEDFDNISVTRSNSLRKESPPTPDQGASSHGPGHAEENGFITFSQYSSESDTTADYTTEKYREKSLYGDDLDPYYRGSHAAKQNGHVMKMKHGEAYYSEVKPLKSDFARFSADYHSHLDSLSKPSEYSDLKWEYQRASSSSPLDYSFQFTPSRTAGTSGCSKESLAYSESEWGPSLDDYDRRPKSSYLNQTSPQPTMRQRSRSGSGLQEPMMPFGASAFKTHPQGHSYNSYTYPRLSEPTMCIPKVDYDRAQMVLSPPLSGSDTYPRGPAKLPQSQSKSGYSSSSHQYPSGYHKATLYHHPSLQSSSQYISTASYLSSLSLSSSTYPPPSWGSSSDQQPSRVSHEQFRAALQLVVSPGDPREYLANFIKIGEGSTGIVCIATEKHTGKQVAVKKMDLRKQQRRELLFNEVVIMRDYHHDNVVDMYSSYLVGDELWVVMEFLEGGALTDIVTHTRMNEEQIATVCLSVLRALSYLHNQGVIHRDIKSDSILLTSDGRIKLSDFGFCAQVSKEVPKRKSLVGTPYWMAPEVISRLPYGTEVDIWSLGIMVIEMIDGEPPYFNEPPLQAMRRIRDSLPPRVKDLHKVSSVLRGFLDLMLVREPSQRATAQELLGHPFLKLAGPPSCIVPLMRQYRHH
In another assay the target is ABL2/ARG (Homo sapiens, UniProt P42684). The settings on record: 1 μM; Run 1, Run 2.
ABL2/ARG, sequence (P42684 whole entry): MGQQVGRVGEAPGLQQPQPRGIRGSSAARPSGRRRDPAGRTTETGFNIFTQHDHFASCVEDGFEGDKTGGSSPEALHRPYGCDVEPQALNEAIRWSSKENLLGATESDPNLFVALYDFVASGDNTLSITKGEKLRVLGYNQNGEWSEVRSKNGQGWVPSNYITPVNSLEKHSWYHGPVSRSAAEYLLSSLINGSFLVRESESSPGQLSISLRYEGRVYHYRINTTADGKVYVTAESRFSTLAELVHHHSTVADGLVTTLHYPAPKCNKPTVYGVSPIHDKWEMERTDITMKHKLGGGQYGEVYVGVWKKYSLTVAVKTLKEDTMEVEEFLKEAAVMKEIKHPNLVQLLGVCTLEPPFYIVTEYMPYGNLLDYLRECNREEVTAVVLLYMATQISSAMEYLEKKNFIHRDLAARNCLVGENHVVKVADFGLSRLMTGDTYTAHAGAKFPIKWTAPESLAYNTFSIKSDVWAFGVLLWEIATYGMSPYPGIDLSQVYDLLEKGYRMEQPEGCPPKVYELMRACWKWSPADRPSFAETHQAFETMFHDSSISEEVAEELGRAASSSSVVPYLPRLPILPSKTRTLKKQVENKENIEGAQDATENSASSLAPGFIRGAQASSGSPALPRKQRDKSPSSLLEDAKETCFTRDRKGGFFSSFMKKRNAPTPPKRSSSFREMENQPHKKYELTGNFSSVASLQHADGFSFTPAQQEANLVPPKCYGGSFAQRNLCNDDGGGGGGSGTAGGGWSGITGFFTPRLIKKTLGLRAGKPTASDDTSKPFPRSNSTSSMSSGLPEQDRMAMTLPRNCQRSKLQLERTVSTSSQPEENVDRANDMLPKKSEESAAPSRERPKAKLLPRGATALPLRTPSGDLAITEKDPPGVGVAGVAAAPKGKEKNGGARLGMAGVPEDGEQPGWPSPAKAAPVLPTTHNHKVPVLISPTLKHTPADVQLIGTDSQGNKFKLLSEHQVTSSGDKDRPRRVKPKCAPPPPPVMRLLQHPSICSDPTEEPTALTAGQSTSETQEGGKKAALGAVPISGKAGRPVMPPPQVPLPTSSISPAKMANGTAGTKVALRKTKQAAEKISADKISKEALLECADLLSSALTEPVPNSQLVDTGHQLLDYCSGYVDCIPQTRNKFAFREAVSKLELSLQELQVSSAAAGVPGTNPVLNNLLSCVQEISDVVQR

Molecules are shown by their SMILES.

YES/YES1, sequence (P07947 whole entry): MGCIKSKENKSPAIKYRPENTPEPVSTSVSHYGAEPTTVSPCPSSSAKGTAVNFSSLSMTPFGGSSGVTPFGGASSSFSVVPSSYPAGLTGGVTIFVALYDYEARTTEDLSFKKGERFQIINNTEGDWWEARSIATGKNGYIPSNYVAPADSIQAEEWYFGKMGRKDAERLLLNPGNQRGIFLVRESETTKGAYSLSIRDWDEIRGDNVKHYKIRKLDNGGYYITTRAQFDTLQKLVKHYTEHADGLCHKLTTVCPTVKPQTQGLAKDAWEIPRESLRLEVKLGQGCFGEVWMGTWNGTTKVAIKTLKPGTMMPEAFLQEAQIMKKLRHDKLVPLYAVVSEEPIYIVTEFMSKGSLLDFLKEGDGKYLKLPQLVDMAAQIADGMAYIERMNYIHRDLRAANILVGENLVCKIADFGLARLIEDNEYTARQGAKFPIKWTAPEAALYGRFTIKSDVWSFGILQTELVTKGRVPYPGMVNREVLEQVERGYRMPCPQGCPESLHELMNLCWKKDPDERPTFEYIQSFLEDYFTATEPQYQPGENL

For `COc1cc(-c2cncc(-c3ccc(N4CCN(C)CC4)cc3)c2C)cc(F)c1C(N)=O` [Compound 26a, 2-Fluoro-6-methoxy-4-(4-methyl-5-(4-(4-methylpiperazin-1-yl)phenyl)pyridin-3-yl)benzamide], the remaining activity at 1 µM on DDR2 turned out to be 100%; at YSK4/MAP3K19, 98.2%; on YES/YES1, 105%; on HIPK1 it was 106%; at PAK5, 94.6%. In addition, the “% enzyme activity” value is 93.78% at CDK2/cyclin O, 98.31% at IGF1R and 95.77% on ABL2/ARG.

Regarding `COc1cc(-c2cncc(-c3ccc(N4C[C@@H](C)N(C)[C@@H](C)C4)cc3)c2C)cc(F)c1C(N)=O` [Compound 26c, 2-Fluoro-6-methoxy-4-(4-methyl-5-(4-((3R,5S)-3,4,5-trimethylpiperazin-1-yl)phenyl)pyridin-3-yl)benzamide], the remaining activity at 1 µM on DDR2 turned out to be 92.7%; on YSK4/MAP3K19 it was 97%; at YES/YES1, 109%; at HIPK1, 99.9%; at PAK5 it was 97.3%. Also, the “% enzyme activity” value is given as 88.53% at CDK2/cyclin O, 94.80% on IGF1R and 96.59% on ABL2/ARG.
